Data from article PMC9919157, “Synergistic Inhibiting Effect of Phytochemicals in Rheum palmatum on Tyrosinase Based on Metabolomics and Isobologram Analyses” (Molecules, 2023).

Molecular target: T1, mushroom tyrosinase (TYR) (Agaricus bisporus, UniProt C7FF04)
T1 construct: gene PPO3
Experiment: dopachrome assay with L-DOPA substrate; partial inhibition only (maximum about […]; IC20 […])
Type: biochemical

T1 sequence (C7FF04 2-392): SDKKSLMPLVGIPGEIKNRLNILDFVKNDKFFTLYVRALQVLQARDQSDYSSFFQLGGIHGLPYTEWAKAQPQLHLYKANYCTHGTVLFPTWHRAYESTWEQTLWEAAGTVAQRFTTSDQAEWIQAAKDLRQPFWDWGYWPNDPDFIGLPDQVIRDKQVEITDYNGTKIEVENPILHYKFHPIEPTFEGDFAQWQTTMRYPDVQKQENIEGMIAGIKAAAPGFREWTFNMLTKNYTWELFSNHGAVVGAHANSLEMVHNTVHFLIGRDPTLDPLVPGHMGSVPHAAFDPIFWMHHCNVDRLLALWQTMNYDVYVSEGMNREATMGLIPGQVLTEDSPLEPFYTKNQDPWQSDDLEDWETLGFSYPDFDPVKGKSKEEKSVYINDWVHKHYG

Oc1cc(O)c2c(c1)O[C@H](c1ccc(O)c(O)c1)[C@@H](O)C2 [CH, catechin hydrate]
Emax: ~25%
